Data: the NIST ThermoML archive (doi:10.1016/j.tca.2015.08.013)

Experiments:
[1] = refractive index (Na D-line) (dimensionless); conditions: 101.33 kPa, Liquid, Standard Abbe refractometry
[2] = relative permittivity at various frequencies (dimensionless); conditions: 99 kPa, Liquid, Frequency=2 MHz, Parallel plate capacitor

Cc1ccc(C)o1 [2,5-dimethylfuran]
Conditions	refractive index, [1]	relative permittivity, [2]
278.15 K	–	2.562
280.65 K	–	2.553
283.15 K	1.4477	2.538
285.65 K	1.44645	2.526
288.15 K	1.44494	2.516
290.65 K	1.44362	2.499
293.15 K	1.44218	2.492
295.65 K	1.44079	2.472
298.15 K	1.43942	2.462
300.65 K	1.43796	2.445
303.15 K	1.43665	2.434
305.65 K	1.43513	2.418
308.15 K	1.43383	2.404
310.65 K	1.4323	2.391
313.15 K	1.43098	2.376
315.65 K	1.42947	2.364
318.15 K	1.42815	2.349
320.65 K	1.42664	2.337
323.15 K	1.42525	2.321
325.65 K	1.42381	2.31
328.15 K	1.42239	2.292
330.65 K	1.42098	2.283
333.15 K	1.41948	2.272
335.65 K	1.41815	2.256
338.15 K	1.41657	2.245

Cc1ccco1 [2-methylfuran]
Conditions	refractive index, [1]	relative permittivity, [2]
278.15 K	–	2.976
280.65 K	–	2.967
283.15 K	1.43942	2.944
285.65 K	1.43794	2.933
288.15 K	1.43644	2.911
290.65 K	1.43495	2.893
293.15 K	1.43344	2.874
295.65 K	1.43194	2.854
298.15 K	1.43044	2.84
300.65 K	1.42893	2.814
303.15 K	1.42742	2.8
305.65 K	1.4259	2.775
308.15 K	1.4244	2.76
310.65 K	1.42289	2.735
313.15 K	1.42138	2.72
315.65 K	1.41984	2.696
318.15 K	1.41831	2.678
320.65 K	1.41675	2.656
323.15 K	1.41521	2.636
325.65 K	1.41366	2.617
328.15 K	1.41212	2.596
330.65 K	1.41059	2.577
333.15 K	1.40907	2.556
335.65 K	1.40747	2.538
338.15 K	1.40589	2.518

c1ccoc1 [furan]
Conditions	refractive index, [1]	relative permittivity, [2]
278.15 K	–	3.124
280.65 K	–	3.094
283.15 K	1.42784	3.068
285.65 K	1.42625	3.036
288.15 K	1.42463	3.009
290.65 K	1.42303	2.988
293.15 K	1.42141	2.958
295.65 K	1.41979	2.934
298.15 K	1.41814	2.913
300.65 K	1.4165	2.892
303.15 K	1.41485	2.865
